In patent US8211646B1, “Methods of treating ovarian cancer by modulating SnoN” (University of South Florida, priority 2008, dated 2012):

How the values were obtained:
Format in all cases: cell-based
[1] = tested on: SnoN RNA; assay: qPCR of SnoN RNA levels in ovarian cell lines; conditions: 5 μM As2O3, 18 hours
Protocol: RNA was isolated using the RNeasy Mini Kit (Qiagen, Valencia, Calif.) from normal, benign, stage I-IV ovarian patient samples and quantitative PCR was performed. A one-step RT-PCR Taqman master mix from Applied Biosystems (Foster City, Calif.) and primers for genes in the 3q26.2 amplicon were obtained using Genebank sequences as well as from Assays on Demand (Hs00180524_m1 (SnoN/SkiL)), with the following primers and probe sets.
Primers/probe sequences for SnoN (Hs00180524_m1), TGFβRII (Hs00234253_m1), and LC3 (Hs00261291_m1) were obtained from Applied Biosystems (Assays by Design).
mRNA levels were determined using the One-Step-Plus Applied Biosystems Detection System or ABI PRISM 7700 Sequence Detection System using β-actin as a reference. PCR conditions were as follows: stage I: 48° C. for 30 min; stage II: 95° C. for 10 min; stage III: [40 cycles] 95° C. for 15 s followed by 60° C. for 1 min Using the correlative method, RNA-fold change in expression was calculated as Ct of gene—Ct of β-actin to generate ΔCt from which ΔCt of the normal sample was subtracted. These values were then converted to log2 values.
The clinical inhibitors As2O3, geldanamycin (17-AAG) (dissolved in dimethylsulfoxide [DMSO]), and MG132 (dissolved in DMSO) were obtained from Sigma-Aldrich (St. Louis, Mo.), Fisher Scientific (Pittsburgh, Pa.), and Alexis Biochemicals (Farmingdale, N.Y.), respectively. N-acetyl-L-cysteine (NAC; dissolved in media) and Bortezomib (PS-341; dissolved in DMSO) were obtained from Fisher Scientific. 3-Methyladenine (3-MA; dissolved in media) was obtained from MP Biomedicals (Solon, Ohio). Tiron (4,5-Dihydroxy-1,3-benzenedisulfonic acid, dissolved in media) was obtained from Fisher Scientific. zVAD-fmk (dissolved in DMSO) and bafilomycin A (dissolved in DMSO) was obtained from Axxora LLC (San Diego, Calif.). […] After the appropriate incubation time (6 or 18 hours), cell lysates were collected, protein quantified, and SDS-PAGE/western analysis was performed. In addition, for selected studies, RNA was isolated, quantified, and used for qPCR analysis.

[2] = tested on: EVI1 forms (MDS1/EVI1, EVI1, EVI1^Del190-515)
Protocol: (§1) Proteins were resolved on an 8%, 12%, or 15% SDS-PAGE gel (as appropriate) and electrophoretically transferred to polyvinyldifluoride (PVDF) membranes. After blocking with 5% (w/v) milk in TBST (Tris-Buffered Saline containing 0.1% Tween-20) for one hour at room temperature, membranes were incubated with primary antibodies (at appropriate dilution) overnight at 4° C., followed by extensive washing and incubation for 1 hour with the appropriate horseradish peroxidase-conjugated secondary antibodies (BioRad, Hercules, Calif.). Blots were washed extensively. A rabbit polyclonal EVI1 antibody was obtained (1:3000 dilution, St. Jude's Children's Hospital, Memphis, Tenn.). SnoN rabbit polyclonal (1:1000 dilution), PML, and p21 SMURF2 rabbit polyclonal (1:500 dilution), MRP1 mouse monoclonal (1:500 dilution) and GAPDH mouse monoclonal (1:250 dilution) antibodies were obtained from Santa Cruz Biotechnology (Santa Cruz, Calif.). TGFβRII rabbit polyclonal (1:1000 dilution) antibody was obtained from Strategic Diagnostics (Newark, Del.). Smad2/3 rabbit polyclonal (1:1000 dilution), Beclin-1 rabbit polyclonal (1:1000 dilution), AKT rabbit polyclonal (1:1000 dilution), TAK1 rabbit polyclonal (1:1000 dilution), PARP rabbit polyclonal (1:1000 dilution), Beclin-1 rabbit polyclonal (1:1000 dilution), caspase-3 rabbit polyclonal (1:1000) which detects the pro-caspase form, and ATG5 rabbit polyclonal (1:1000 dilution), LC3-II rabbit polyclonal (1:1000 dilution) antibodies were obtained from Cell Signaling Technology (Danvers, Mass.). The HSP27 mouse monoclonal (1:1000 dilution) antibody was obtained from Stressgen (Ann Arbor, Mich.). Blots were developed using chemiluminescence substrates (Amersham Piscataway, N.J. or BioRad, Hercules, Calif.). Monoclonal PAI-1 antibody was obtained from BD Pharmingen. PSMAD2, total SMAD2/3, p-ERK, p-AKT, and total AKT antibodies were obtained from Cell Signaling Technology. A monoclonal antibody against Arkadia was obtained from Abnova (Taiwan).
(§2) Densitometric analysis was performed using the HP Scanjet 5590 and the Image J program (Image Processing and Analysis in Java, NIH Image Software). Bands were selected and the intensity values were normalized to those for GAPDH. The values are presented as fold-changes relative to control siRNA treated cells.
(§3) The clinical inhibitors As2O3, geldanamycin (17-AAG) (dissolved in dimethylsulfoxide [DMSO]), and MG132 (dissolved in DMSO) were obtained from Sigma-Aldrich (St. Louis, Mo.), Fisher Scientific (Pittsburgh, Pa.), and Alexis Biochemicals (Farmingdale, N.Y.), respectively. N-acetyl-L-cysteine (NAC; dissolved in media) and Bortezomib (PS-341; dissolved in DMSO) were obtained from Fisher Scientific. 3-Methyladenine (3-MA; dissolved in media) was obtained from MP Biomedicals (Solon, Ohio). Tiron (4,5-Dihydroxy-1,3-benzenedisulfonic acid, dissolved in media) was obtained from Fisher Scientific. zVAD-fmk (dissolved in DMSO) and bafilomycin A (dissolved in DMSO) was obtained from Axxora LLC (San Diego, Calif.). Bovine catalase was obtained from Sigma-Aldrich. HBED and Mn TBAP was obtained from ENZO Life Sciences (Farmingdale, N.Y.). Ovarian cells were plated in 6-well plates at 250,000 cells per well and grown in complete medium. The following day, the cells were treated with 5 μM MG132, As2O3 (between 2-50 μM), 17-AAG (between 2-50 μM), NAC (Fisher Scientific, between 25 μM to 1 mM), Tiron (between 25 μM to 1 mM), 3-MA (0.1 mM to 10 mM), or zVAD-fmk (25 μM to 100 μM). For control cells, DMSO (a final concentration of <0.5%) was added to compare appropriately to drugs dissolved in DMSO. After the appropriate incubation time (6 or 18 hours), cell lysates were collected, protein quantified, and SDS-PAGE/western analysis was performed. In addition, for selected studies, RNA was isolated, quantified, and used for qPCR analysis.

[3] = tested on: cleaved PARP; assay: Western analysis of PARP cleavage (early apoptosis marker)
Protocol: as §1, §2, §3

[4] = tested on: T80, HEY and SKOV3 cells; assay: Annexin V-propidium iodide apoptosis assay; conditions: As2O3 treatment
Protocol: For assessment of apoptosis, the Annexin V-propidium iodide staining kit (Calbiochem, San Diego, Calif.) was used according to the manufacturer's protocol. Briefly, cells were treated with As2O3 for 24 hours at which time both the floating and adherent cells (removed by trypsinization) were collected. Cells were resuspended in PBS followed by the addition of annexin V-FITC and propidium iodide. The samples were then analyzed by flow cytometry at the MD Anderson Cancer Center FACS Core Facility. The FITC and the propidium iodide signals were detected at 518 nm with FL1 and at 620 nm with FL2, respectively.

[5] = tested on: HSP27; assay: Western analysis of HSP27; conditions: HEY, 18 hours As2O3
Protocol: as §1, with “The HSP27 mouse monoclonal (1:1000 dilution) antibody was obtained from Stressgen (Ann Arbor, Mich.). Blots were developed using chemiluminescence substrates (Amersham Piscataway, N.J. or BioRad, Hercules, Calif.). Monoclonal PAI-1 antibody was obtained from BD Pharmingen. PSMAD2, total SMAD2/3, p-ERK, p-AKT, and total AKT antibodies were obtained from Cell Signaling Technology. A monoclonal antibody against Arkadia was obtained from Abnova (Taiwan).” left out
The clinical inhibitors As2O3, geldanamycin (17-AAG) (dissolved in dimethylsulfoxide [DMSO]), and MG132 (dissolved in DMSO) were obtained from Sigma-Aldrich (St. Louis, Mo.), Fisher Scientific (Pittsburgh, Pa.), and Alexis Biochemicals (Farmingdale, N.Y.), respectively. […] After the appropriate incubation time (6 or 18 hours), cell lysates were collected, protein quantified, and SDS-PAGE/western analysis was performed. In addition, for selected studies, RNA was isolated, quantified, and used for qPCR analysis.

Substance: Arsenic trioxide [As2O3]
- effect on SnoN RNA [1]: little effect
- EVI1 and EVI1^Del190-515 protein expression ([2]; 5 μM As2O3): reduced
- MDS1/EVI1 protein expression ([2]; 5 μM As2O3): remained unchanged
- protein levels of EVI1 forms ([2]; HEY and OVCA429, 18 hours, increasing doses): markedly decreased
- dose at which PARP fragmentation dramatically increased ([3]; HEY and SKOV3): 50 µM
- dose at which PARP fragmentation dramatically increased ([3]; T80): 25 µM
- apoptotic percentage ([4]; SKOV3 and HEY): < 20%
- apoptotic percentage ([4]; T80 (low expressing EVI1 cell line)): > 80%
- HSP27 expression [5]: increased
